# Earlier results, collected in US20230190754A1, “Therapeutic combinations for the treatment of Progressive Fibrosing interstitial lung diseases” (Boehringer Ingelheim International GmbH, priority 2021, published 2023).
# Test system: PDE4 subtypes, A-D
# Settings: cited from earlier work
row,Compound,Preferential enzymatic inhibition among the PDE4 subtypes (in words)
1,CCOc1cc([C@@H](CS(C)(=O)=O)N2C(=O)c3cccc(NC(C)=O)c3C2=O)ccc1OC [apremilast],None of these show any preferential enzymatic inhibition
2,N#Cc1ccc(Oc2ccc3c(c2)COB3O)cc1 [crisaborole],None of these show any preferential enzymatic inhibition
3,O=C(Nc1c(Cl)cncc1Cl)c1ccc(OC(F)F)c(OCC2CC2)c1 [roflumilast],None of these show any preferential enzymatic inhibition
